Earlier results in article PMC12181400, “Leveraging viral genome sequences and machine learning models for identification of potentially selective antiviral agents” (Communications Chemistry, 2025).
Structures can show the parent of a compound that is named as a salt. Where two headings read alike, the source gives them in different places.

Tests used:
Details in all cases: cited from earlier work
[1] = test system: cell viability (tox21-ap1-agonist-p1)
[2] = test system: cell viability (tox21-ar-mda-kb2-luc-agonist-p3)
[3] = test system: cell viability (tox21-ar-mda-kb2-luc-antagonist-p2)
[4] = test system: cell viability (tox21-are-bla-p1)
[5] = test system: cell viability (tox21-car-agonist-p1)
[6] = test system: cell viability (tox21-car-antagonist-p1)
[7] = curve rank −9 to 9, 0 = inactive, ref NCATS Tox21 public data browser

Structure (SMILES) | tox21-ap1-agonist-p1-viability (curve rank) [1] | tox21-ar-mda-kb2-luc-agonist-p3-viability (curve rank) [2] | tox21-ar-mda-kb2-luc-antagonist-p2-viability (curve rank) [3] | tox21-are-bla-p1-viability (curve rank) [4] | tox21-car-agonist-p1-viability (curve rank) [5] | tox21-car-antagonist-p1-viability (curve rank) [6] | tox21-ap1-agonist-p1-viability (curve rank) [1, 7] | tox21-ar-mda-kb2-luc-agonist-p3-viability (curve rank) [2, 7] | tox21-ar-mda-kb2-luc-antagonist-p2-viability (curve rank) [3, 7] | tox21-are-bla-p1-viability (curve rank) [4, 7] | tox21-car-agonist-p1-viability (curve rank) [5, 7] | tox21-car-antagonist-p1-viability (curve rank) [6, 7]
CCOC(=O)[N-]c1cn(N2CCOCC2)n[o+]1 [Molsidomine] | 0 | 0 | 0 | 0 | 0 | 0 | – | – | – | – | – | –
c1ccc2c(CC3=NCCN3)cccc2c1 [Naphazoline hydrochloride] | 0 | 0 | 0 | 0 | 0 | 0 | – | – | – | – | – | –
O=C(CCNNC(=O)c1ccncc1)NCc1ccccc1 [Nialamide] | 0 | 0 | 0 | 0 | 0 | 0 | – | – | – | – | – | –
O=C(NCCO[N+](=O)[O-])c1cccnc1 [Nicorandil] | 0 | 0 | 0 | 0 | 0 | 0 | – | – | – | – | – | –
CN1Cc2c(N)cccc2C(c2ccccc2)C1 (stereo not drawn) [Nomifensine maleate] | 0 | 0 | 0 | 0 | 0 | 0 | – | – | – | – | – | –
Cc1ncc([N+](=O)[O-])n1CC(O)CCl (stereo not drawn) [Ornidazole] | 0 | 0 | 0 | 0 | 0 | 0 | – | – | – | – | – | –
CC(=O)CCCCn1c(=O)c2c(ncn2C)n(C)c1=O [Pentoxifylline] | 0 | 0 | 0 | 0 | 0 | 0 | – | – | – | – | – | –
NC(=O)NC(=O)Cc1ccccc1 [Phenacemide] | – | – | – | – | – | – | 0 | 0 | 0 | 0 | 0 | 0
CCOc1ccc(NC(C)=O)cc1 [Phenacetin] | 0 | 0 | 0 | 0 | 0 | 0 | – | – | – | – | – | –
O=C(O)COc1ccccc1 [Phenoxyacetic acid] | – | – | – | – | – | – | 0 | 0 | 0 | 0 | 0 | 0
CN1C(=O)CC(c2ccccc2)C1=O (stereo not drawn) [Phensuximide] | 0 | 0 | 0 | 0 | 0 | 0 | – | – | – | – | – | –
Nc1ccc(C(=O)Oc2ccccc2)c(O)c1 [Phenyl 4-aminosalicylate] | – | – | – | – | – | – | 0 | 0 | 0 | 0 | 0 | 0
CC(N/C(=N\C#N)Nc1ccncc1)C(C)(C)C (stereo not drawn) [Pinacidil monohydrate] | 0 | 0 | 0 | 0 | 0 | 0 | – | – | – | – | – | –
CCn1cc(C(=O)O)c(=O)c2cnc(N3CCNCC3)nc21 [Pipemidic acid] | 0 | 0 | 0 | 0 | 0 | 0 | – | – | – | – | – | –
CC[N+]1(C)CCCC(OC(=O)C(O)(c2ccccc2)c2ccccc2)C1 (stereo not drawn) [Pipenzolate bromide] | 0 | 0 | 0 | 0 | 0 | 0 | – | – | – | – | – | –
O=C(CCBr)N1CCN(C(=O)CCBr)CC1 [Pipobroman] | 0 | 0 | 0 | 0 | 0 | 0 | – | – | – | – | – | –
CN1C(C(=O)Nc2ccccn2)=C(O)c2ccccc2S1(=O)=O [Piroxicam] | 0 | 0 | 0 | 0 | 0 | 0 | – | – | – | – | – | –
CC(C)(C)C(=O)OCOC(=O)[C@@H]1N2C(=O)[C@@H](NC(=O)[C@H](N)c3ccccc3)[C@H]2SC1(C)C [Pivampicillin] | 0 | 0 | 0 | 0 | 0 | 0 | – | – | – | – | – | –
CCC1(c2ccccc2)C(=O)NCNC1=O [Primidone] | 0 | 0 | 0 | 0 | 0 | 0 | – | – | – | – | – | –
CC(C)(Sc1cc(C(C)(C)C)c(O)c(C(C)(C)C)c1)Sc1cc(C(C)(C)C)c(O)c(C(C)(C)C)c1 [Probucol] | 0 | 0 | 0 | 0 | 0 | 0 | – | – | – | – | – | –
CC(O)Cn1cnc2c1c(=O)n(C)c(=O)n2C (stereo not drawn) [Proxyphylline] | 0 | 0 | 0 | 0 | 0 | 0 | – | – | – | – | – | –
Cc1c(NC(C)C)c(=O)n(-c2ccccc2)n1C [Ramifenazone] | 0 | 0 | 0 | 0 | 0 | 0 | – | – | – | – | – | –
CC(Cc1ccccc1)(NC(=O)CN)c1ccccc1 (stereo not drawn) [Remacemide hydrochloride] | – | – | – | – | – | – | 0 | 0 | 0 | 0 | 0 | 0
CCN1CCC[C@H]1CNC(=O)c1c(OC)ccc(Br)c1OC [Remoxipride] | 0 | 0 | 0 | 0 | 0 | 0 | – | – | – | – | – | –
COc1ccc(C2CNC(=O)C2)cc1OC1CCCC1 (stereo not drawn) [Rolipram] | – | – | – | – | – | – | 0 | 0 | 0 | 0.67 | 0 | 0
CN(C(=O)c1c(O)c2ccccc2n(C)c1=O)c1ccccc1 [Roquinimex] | 0 | 0 | 0 | 0 | 0 | 0 | – | – | – | – | – | –
O=C1NS(=O)(=O)c2ccccc21 [Saccharin] | 0 | 0 | 0 | 0 | 0 | 0 | – | – | – | – | – | –
NC(=O)c1ccccc1O [Salicylamide] | 0 | 0 | 0 | 0 | 0 | 0 | – | – | – | – | – | –
O=C(Oc1ccccc1C(=O)O)c1ccccc1O [Salsalate] | 0 | 0 | 0 | 0 | 0 | 0 | – | – | – | – | – | –
